Experimental data published in patent publication US20240016775A1, “ANTI-CORONAVIRUS APPLICATION OF POLY ADP RIBOSE POLYMERASE INHIBITOR” (FUKANG (SHANGHAI) HEALTH TECHNOLOGY CO., LTD, priority 2020, published 2024).
Where a name gives a salt, the structure may show the parent alone.

Assays:
Format in all cases: cell-based
[1] = test system: SARS-CoV-2; experiment: microbe, parasite or virus in culture; conditions: Severe acute respiratory syndrome coronavirus 2, Vero C1008, 48 h, read-out: Inhibiting rate, %, 3 μM; Vero-E6, MOI 0.05, 48 h
[2] = test system: Vero-E6 cells; experiment: Cytotoxicity test on Vero-E6 cells (CCK-8); conditions: 30 μM
Experimental: (§1) 2.1 Experimental Groups: • 1) Mefuparib hydrochloride (CVL218) group • 2) DMSO control group • 3) Olaparib group • 4) Cell control group: containing only cells, without adding drugs • 5) Blank control group (only medium without cells)
(§2) Mefuparib hydrochloride was obtained from Pukang (Shanghai) Health Technology Co., Ltd., with a purity of >99.0%. It was dissolved in DMSO and then diluted in gradients according to Table 4 below (the maintenance solution was DMEM medium). Serial dilutions were performed for DMSO according to the same dilution gradients.
(§3) Vero-E6 cells were seeded into 96-well culture plates at 1×10^4 cells/well, and cultured in DMEM containing 10% fetal bovine serum for 16 hours to become 80% pellets, then the cell culture medium was aspirated and discarded from each well, the cells were washed once with sterile PBS, and different drugs (200 μl/well) diluted in the cell maintenance solution were added to each well according to the experimental groups, with 3 duplicate wells set up for each group, and then the wells were placed in a 37° C., 5% CO2 incubator for 48 h.
(§4) For the DMSO control group, DMSO diluted with the cell maintenance solution to the corresponding concentration was added, and for the cell control group, 200 μl of the cell maintenance solution was added. For the blank control group, only cell maintenance solution without cells was added.
(§5) 2.3.2 Detection of toxicity of mefuparib hydrochloride and Olaparib on Vero-E6 The cell state was observed and recorded under an inverted microscope, and the toxicity of the drug to Vero-E6 cells was detected according to the operation instructions of the CCK-8 kit: 20 μl of CCK-8 solution was added to all experimental wells and control wells, and the cell culture plate was placed in a 37° C., 5% CO2 incubator for 1 hour, and then its absorbance value at the wavelength of 450 nm was measured using a multifunctional microplate reader.

[3] = Cytotoxicity test on Vero-E6 cells (CCK-8); conditions: African green monkey, 48 h, read-out: CC50 (50% cytotoxic concentration)
Experimental: as §1, §2, §3, §4, §5

Structure (SMILES) | inhibition at 3 µM [1] [%] | Inhibitory effect on the cells (toxicity) [2] | CC50 at 48 h [3] [µM]
CCOC(=O)C1=C[C@@H](OC(CC)CC)[C@H](NC(C)=O)[C@@H](N)C1 [Oseltamivir] | -13.5 |  | 
CC(=O)N[C@H]1[C@H]([C@H](O)[C@H](O)CO)OC(C(=O)O)=C[C@@H]1N=C(N)N [Zanamivir] | -10.7 |  | 
CNCc1ccc(-c2cc3cc(F)cc(C(N)=O)c3o2)cc1 [mefuparib hydrochloride] |  | no inhibitory effect on the cells | ~92
